Legend:
[1] = test system: RAMOS, a B cell line derived from Burkitt's lymphoma; assay: MiCK-type spectrophotometric apoptosis assay, RAMOS cells; format: cell-based, human; conditions: 0.01-20 μM
Protocol: (§1) Spectrophotometric data may be converted to kinetic units. Kinetic units are determined by the slope of the curve created when the change in the OD at 600 nm caused by cell blebbing is plotted as a function of time. Specific information regarding the calculation of kinetic units is provided in Kravtsov, Vladimir D. et al., Use of the Microculture Kinetic Assay of Apoptosis to Determine Chemosensitivities of Leukemias, Blood 92:968-980 (1998), incorporated by reference herein. Optical density for a given drug candidate at a given concentration may be plotted against time. This plot gives a distinctive increasing curve if the cells are undergoing apoptosis. […] (FIG. 3.) Cell death due to reasons other than apoptosis can also be determined by the current assay and is useful in eliminating false positives from drug candidate screening. […]
(§2) Vmax is the maximum kinetic rate, which is the slope of the steep increase in the OD v. time plot when cells are undergoing apoptosis. […] ODcell is the initial OD of the control containing cells and ODblank is the initial OD of a blank well containing only medium or medium and drug (the drug may be omitted for some drugs, but for colored drugs in particular it may be included in the blank). y is a coefficient dependent on the cell type being assayed and may be determined experimentally through observation of the cell lines. […]

[2] = test system: JURL-MK2, a chronic myeloid leukemia in blast crisis; assay: MiCK-type spectrophotometric apoptosis assay, JURL-MK2 cells; format: cell-based, human; conditions: 0.01-20 μM, OD at 600 nm every 5 minutes for 48 hours, above 3 = positive response
Protocol: as §1, §2

[3] = test system: MOLT-3, an acute T-cell lymphoblastic leukemia; assay: MiCK-type spectrophotometric apoptosis assay, MOLT-3 cells; format: cell-based, human; conditions: 0.01-20 μM
Protocol: as §1, §2

[4] = test system: ovarian cancer cell line, CAOV-3; assay: MiCK-type spectrophotometric apoptosis assay, CAOV-3 cells; format: cell-based; conditions: as Example 1 but with higher drug concentrations, above 3 kinetic units = positive response
Protocol: Cancer cells were obtained from exponentially growing cultures in RPMI 1640 medium without phenol red supplemented with 10% heat-inactivated fetal bovine serum, 100 U/ml penicillin and 100 μg/mL streptomycin (complete medium) in humidified air with 5% CO2 at 37° C. Cells were harvested, washed with pre-warmed medium and resuspended in complete medium. Appropriate cell counts and viability were tested.
Cells from each cell line in complete medium were placed in wells of a 96-well plate at a concentration of 2 to 5×10^5 cells/ml. Various dilutions of the drug candidate, Idarubicin, were added to the wells in 5 μL aliquots. Final concentrations for the drug candidate were 0.01, 0.1, 0.5, 1, 5, 10 and 20 μM. The plates were incubated at 37° C. for 30 minutes in a humidified 5% CO2 atmosphere. After this adjustment period, 30 μl of sterile mineral oil was layered on top of each well. The microtiter plate was placed in an incubated spectrophotometer chamber (37° C.) and OD at 600 nm was measured every 5 minutes for a period of 48 hours. The reader was calibrated to zero absorbance using well containing only complete medium and no cells. All tests were performed in triplicate.
Data acquisition and computation was performed using appropriate software. OD readings were plotted against time to provide a kinetic representation of cell responses to the drugs and drug candidate. Kinetic units were calculated for each test well. A kinetic unit below […] was considered a negative response and above 3 was considered a positive response. A kinetic unit between 1.5 and 3 was considered a marginal response.
A variety of anti-cancer drugs were tested against a single ovarian cancer cell line, CAOV-3, to determine their suitability for use against ovarian cancer. Tests were performed in a manner similar to those in Example 1, but with higher drug concentrations.

[5] = test system: HL60, an acute promyelocytic leukemia cell line; assay: MiCK-type spectrophotometric apoptosis assay, HL60 cells; format: cell-based, human; conditions: HL-60 cells
Protocol: as §1, §2

Row | Compound | response / suitability (in words) [4] | further results
1 | CC(=O)[C@]1(O)Cc2c(O)c3c(c(O)c2[C@@H](O[C@H]2C[C@H](N)[C@H](O)[C@H](C)O2)C1)C(=O)c1ccccc1C3=O [Idarubicin, 4-demethoxydaunorubicin] | positive response at reasonable concentrations | apoptotic response ([1]; RAMOS cells, OD at 600 nm every 5 minutes for 48 hours, above 3 = positive response): exceeding 3 kinetic units; concentration dependence of response (in words) ([1]; Ramos cells): positive response was seen in the Ramos cell line only at high concentrations; apoptotic response [2]: exceeding 3 kinetic units; concentration dependence of kinetic unit readings (in words) [3]: higher kinetic unit readings at lower concentrations; apoptotic response ([3]; OD at 600 nm every 5 minutes for 48 hours, above 3 = positive response): exceeding 3 kinetic units; maximal response ([5]; 0.01-20 μM, 48 hours, between 1.5 and 3 = marginal response): 2.3 kinetic units; drug sensitivity (in words) ([5]; threshold 3 kinetic units): only marginal sensitivity
2 | CO[C@@]12[C@H](COC(N)=O)C3=C(C(=O)C(C)=C(N)C3=O)N1C[C@@H]1N[C@@H]12 [Mitomycin] | positive response at reasonable concentrations | –
3 | CCC1=C[C@@H]2CN(C1)Cc1c([nH]c3ccccc13)[C@@](C(=O)OC)(c1cc3c(cc1OC)N(C)[C@H]1[C@@](O)(C(=O)OC)[C@H](OC(C)=O)[C@]4(CC)C=CCN5CC[C@]31[C@@H]54)C2 [Vinorelbine] | not suitable drugs for treating ovarian cancer | –
4 | O=C1[O][Pt]2([NH][C@@H]3CCCC[C@H]3[NH]2)[O]C1=O [Oxaliplatin] | not suitable drugs for treating ovarian cancer | –
5 | O=C1c2c(O)ccc(O)c2C(=O)c2c(NCCNCCO)ccc(NCCNCCO)c21 [Mitoxantrone] | positive response at reasonable concentrations | –
6 | COc1cccc2c1C(=O)c1c(O)c3c(c(O)c1C2=O)C[C@@](O)(C(C)=O)C[C@@H]3O[C@H]1C[C@H](N)[C@H](O)[C@H](C)O1 [Daunorubicin] | positive response at reasonable concentrations | –
7 | CCc1c2c(nc3ccc(OC(=O)N4CCC(N5CCCCC5)CC4)cc13)-c1cc3c(c(=O)n1C2)COC(=O)[C@]3(O)CC [Irinotecan] | need to use high concentrations of the drug to achieve a positive response | –
